Data from article PMC7862507, “Adrenomedullin for steroid-resistant ulcerative colitis: a randomized, double-blind, placebo-controlled phase-2a clinical trial” (Journal of Gastroenterology, 2020).

Assays:
[1] = Plasma concentration of adrenomedullin (pharmacokinetics); conditions: human, intravenous
Experimental: Serum concentrations of AM were assessed at predose, 4 and 8 h, and 2 h after administration (10 h after the start of drug administration) on 1, 8, and 14 days of the administration. […] Measurements and data processing were carried by the Bozo Research Centre (Tsukuba, Japan). The evaluated pharmacokinetic (PK) parameters included the maximum measured plasma concentration (Cmax); the time to maximum measured plasma concentration (Tmax); and the cumulative area under the plasma concentration–time curve (AUC) from time 0 to time 10 h.
The Cmax and Tmax values were obtained directly from the data, while the AUC was calculated using the Phoenix WinNonlin software 6·1 (Pharsight, CA, USA). All data are shown as mean ± standard deviation (SD).

[2] = test system: patients with steroid-resistant UC; assay: Dose of concomitant steroid, phase-2a clinical trial; type: in vivo, Japanese patients; conditions: n = 3, mean ± SD, placebo 11.3 ± 6.4
Experimental: (§1) After hospitalization, patients received a continuous infusion of the assigned drug for 8 h per day for a total of 14 days. After the final administration of the investigational drug, patients were subjected to safety examinations and then discharged. But, if necessary due to disease activity, continuous hospitalization was allowed. Patients were requested to make an office visit at 4 and 8 weeks. Evaluations of their Mayo scores including endoscopic examinations were done at 2 and 8 weeks, whereas evaluation of the Lichtiger index was done at 2, 4, and 8 weeks. The dose of concomitant steroid was maintained for 2 weeks after drug administration, and then, a reduction in the steroid dose was allowed depending on the disease condition. Changes to the doses of other drugs, such as aminosalicylic acid, were prohibited throughout the trial.
(§2) All data were collected at each institute from March 2017 to April 2019. The primary endpoint was the change in the Mayo scores at 2 weeks. Secondary endpoints included the change in the Mayo scores at 8 weeks and the rate of clinical remission at 2 and 8 weeks, defined as a Mayo score 0; the response rate of the Mayo scores at 2 and 8 weeks, defined as an improvement of a 3-point or more decrease or at least a 30% decrease from baseline; the changes in MES at 2 and 8 weeks; the changes in the Lichtiger index at 2, 4, and 8 weeks; the changes in fecal calprotectin and FIT at 2 weeks; and finally, the changes in the given dose of steroid.
(§3) The significant level for each test was 5%. […] All data are shown as mean ± standard deviation (SD).

[3] = test system: patients with steroid-resistant UC; assay: Mayo endoscopy subscore (MES), phase-2a clinical trial; type: in vivo, Japanese patients; conditions: mean ± SD
Source text: (§4) Patients had to meet all criteria, namely, a Mayo score of 6 or more, a rectal bleeding subscore of at least 1, and Mayo endoscopy subscore (MES) of at least 2, at entry. Main exclusion criteria were as follows: patients with fulminant UC, patients with precancerous lesion in the colon, medication history of biologics within the last 3 months, patients with malignancy or any history of malignancy, and patients with active infection. We excluded patients with a systolic blood pressure under 90 mmHg and a pulse rate under 45 bpm for safety reasons due to the vasodilatory effect of AM. All patients provided written informed consent for all study-related procedures and were requested to be hospitalized for 2 weeks.
(§5) Patients were enrolled after confirmation of steroid-resistance defined as at least daily treatment with 30 mg or more of prednisolone. Screening tests including measurements of vital signs, blood and urine examinations, as well as a 12-lead electrocardiography (ECG), were conducted within 2 weeks prior to administration. Demographic data and disease characteristics including endoscopic disease activity of patients were also collected before randomization. Endoscopic subscores were assessed by on-site investigators and were not subjected to central review. Clinical disease activity was assessed by expert doctors according to the Mayo score and Lichtiger index. Stool samples were collected before administration of the investigational drug and after 2 weeks of treatment initiation. Measurements of fecal calprotectin and […] (FITs) were performed by a commercially available laboratory testing service (BML, Tokyo, Japan) in compliance with GCP. Additionally, measurements of complement components including CH50, C1q, C3, and C4 and evaluation of the absolute number of hematopoietic stem cells in the peripheral blood were performed before and after 2, 4, and 8 weeks by other laboratory testing services (SRL medisearch, Tokyo, Japan and LSI medience, Tokyo, Japan, respectively). The absolute number of hematopoietic stem cells in the peripheral blood was measured as CD34-positive cells using CD45FITC/CD34PE, 7AAD kit (Becton Dickinson Immunocytometry System, USA) and flow cytometry.
as §1, §2, §3

[4] = test system: patients with steroid-resistant UC; assay: Adverse events, safety assessment; conditions: for Decrease of blood pressure (cardiovascular disorders) / Flushing (cardiovascular disorders) / Gastrointestinal disorders / Head disconfort (nervous system disorders) / Palpitation (cardiovascular disorders) / Rash / Headache (nervous system disorders) / Increase of transaminase / Muscle pain, back pain / Any adverse events: patients with event (%); for Decrease of blood pressure (cardiovascular disorders) / Flushing (cardiovascular disorders) / Gastrointestinal disorders / Head disconfort (nervous system disorders) / Palpitation (cardiovascular disorders) / Rash / Severe adverse events: placebo 0; for Headache (nervous system disorders) / Serious adverse events: placebo 1 (14%); for Increase of transaminase / Muscle pain, back pain: placebo 2 (29%); for Any adverse events: placebo 4 (57%); for Severe adverse events / Serious adverse events: patients with event
Experimental: Safety evaluations including the evaluation of adverse events (AEs) and serious adverse events (SAEs) were conducted throughout the study. Vital signs, blood and urine tests, and a 12-lead ECG were performed at specified times after administration, with monitoring of ECG being assessed from the beginning of every test drug administration until 2 h after the administration.
All data, except for the PK parameters, were collected using an electronic data collection system (Viedoc) and analyzed by Intellim (Tokyo, Japan), an independent CRO. […] The population included in the safety analysis were all patients who received at least 1 day of administration of the test drug. […] The significant level for each test was 5%. All analyses were performed using SAS version 9.3 (SAS Institute, Cary, NC, USA). […] All data are shown as mean ± standard deviation (SD).

[5] = test system: patients with steroid-resistant UC; assay: Mayo score, phase-2a clinical trial; type: in vivo, Japanese patients; conditions: mean ± SD
Source text: as §4, §5, §1, §2, §3

[6] = test system: patients with steroid-resistant UC; assay: Lichtiger index, phase-2a clinical trial; type: in vivo, Japanese patients; conditions: mean ± SD
Source text: as §4, §5, §1, §2, §3

## CC[C@H](C)[C@H](NC(=O)[C@H](CCC(N)=O)NC(=O)[C@H](Cc1c[nH]cn1)NC(=O)[C@H](C)NC(=O)[C@H](CC(C)C)NC(=O)[C@H](CCCCN)NC(=O)[C@H](CCC(N)=O)NC(=O)[C@@H](NC(=O)[C@@H](NC(=O)[C@@H]1CSSC[C@H](NC(=O)CNC(=O)[C@H](Cc2ccccc2)NC(=O)[C@H](CO)NC(=O)[C@H](CCCNC(=N)N)NC(=O)[C@H](CC(C)C)NC(=O)CNC(=O)[C@H](CCC(N)=O)NC(=O)[C@H](Cc2ccccc2)NC(=O)[C@H](CC(N)=O)NC(=O)[C@H](CC(N)=O)NC(=O)[C@H](CCSC)NC(=O)[C@H](CO)NC(=O)[C@H](CCC(N)=O)NC(=O)[C@H](CCCNC(=N)N)NC(=O)[C@@H](N)Cc2ccc(O)cc2)C(=O)N[C@@H](CCCNC(=N)N)C(=O)N[C@@H](Cc2ccccc2)C(=O)NCC(=O)N[C@@H]([C@@H](C)O)C(=O)N1)[C@@H](C)O)C(C)C)C(=O)N[C@@H](Cc1ccc(O)cc1)C(=O)N[C@@H](CCC(N)=O)C(=O)N[C@@H](Cc1ccccc1)C(=O)N[C@H](C(=O)N[C@@H](CC(=O)O)C(=O)N[C@@H](CCCCN)C(=O)N[C@@H](CC(=O)O)C(=O)N[C@@H](CCCCN)C(=O)N[C@@H](CC(=O)O)C(=O)N[C@@H](CC(N)=O)C(=O)N[C@H](C(=O)N[C@@H](C)C(=O)N1CCC[C@H]1C(=O)N[C@@H](CCCNC(=N)N)C(=O)N[C@@H](CO)C(=O)N[C@@H](CCCCN)C(=O)N[C@H](C(=O)N[C@@H](CO)C(=O)N1CCC[C@H]1C(=O)N[C@@H](CCC(N)=O)C(=O)NCC(=O)N[C@@H](Cc1ccc(O)cc1)C(N)=O)[C@@H](C)CC)C(C)C)[C@@H](C)O [Adrenomedullin]
[1]; 5 ng/kg/min
  AUC(0-t): 0.152 ± 0.034 ng·h/mL
[1]; 10 ng/kg/min
  AUC(0-t): 0.281 ± 0.039 ng·h/mL
[1]; 15 ng/kg/min
  AUC(0-t): 0.44 ± 0.191 ng·h/mL
[2]; AM 5 ng/kg/min group
  dose of steroid at 8 weeks: 5.0 ± 8.7 mg
[2]; AM 10 ng/kg/min group
  dose of steroid at 8 weeks: 10.0 ± 10.0 mg
[2]; AM 15 ng/kg/min group
  dose of steroid at 8 weeks: 16.7 ± 12.6 mg
[3]; AM 5 ng/kg/min infusion 8 h/day x 14 days, 2 week, n = 4, baseline 2.3 ± 0.5, placebo 2.0 ± 0.6
  MES (Mayo endoscopic sub-score): 1.5 ± 0.6
[3]; AM 5 ng/kg/min infusion 8 h/day x 14 days, 2 week, n = 4, placebo -0.5 ± 0.8, P = 0.67 vs. placebo
  Change of MES: -0.8 ± 1.0
[3]; AM 5 ng/kg/min infusion 8 h/day x 14 days, 8 week, n = 3, placebo 2.0 ± 1.4 (n = 2)
  MES (Mayo endoscopic sub-score): 0.7 ± 0.6
[3]; AM 5 ng/kg/min infusion 8 h/day x 14 days, 8 week, n = 3, placebo -0.5 ± 2.1 (n = 2), P = 0.47 vs. placebo
  Change of MES: -1.7 ± 1.2
[3]; AM 10 ng/kg/min infusion 8 h/day x 14 days, 2 week, n = 5, baseline 2.2 ± 0.4, placebo 2.0 ± 0.6
  MES (Mayo endoscopic sub-score): 2.2 ± 0.8
[3]; AM 10 ng/kg/min infusion 8 h/day x 14 days, 2 week, n = 5, placebo -0.5 ± 0.8, P = 0.32 vs. placebo
  Change of MES: 0.0 ± 0.7
[3]; AM 10 ng/kg/min infusion 8 h/day x 14 days, 8 week, n = 3, placebo 2.0 ± 1.4 (n = 2)
  MES (Mayo endoscopic sub-score): 2.0 ± 0.0
[3]; AM 10 ng/kg/min infusion 8 h/day x 14 days, 8 week, n = 3, placebo -0.5 ± 2.1 (n = 2), P = 0.69 vs. placebo
  Change of MES: 0.0 ± 0.0
[3]; AM 15 ng/kg/min infusion 8 h/day x 14 days, 2 week, n = 6, baseline 2.5 ± 0.5, placebo 2.0 ± 0.6
  MES (Mayo endoscopic sub-score): 2.3 ± 1.0
[3]; AM 15 ng/kg/min infusion 8 h/day x 14 days, 2 week, n = 6, placebo -0.5 ± 0.8, P = 0.49 vs. placebo
  Change of MES: -0.2 ± 0.8
[3]; AM 15 ng/kg/min infusion 8 h/day x 14 days, 8 week, n = 3, placebo 2.0 ± 1.4 (n = 2)
  MES (Mayo endoscopic sub-score): 0.0 ± 0.0
[3]; AM 15 ng/kg/min infusion 8 h/day x 14 days, 8 week, n = 3, placebo -0.5 ± 2.1 (n = 2), P = 0.27 vs. placebo
  Change of MES: -2.0 ± 0.0
[4]; AM 5 ng/kg/min, n = 5
  Decrease of blood pressure (cardiovascular disorders): 0
  Flushing (cardiovascular disorders): 0
  Gastrointestinal disorders: 2 (40%)
  Head disconfort (nervous system disorders): 0
  Palpitation (cardiovascular disorders): 0
  Rash: 0
  Headache (nervous system disorders): 3 (60%)
  Increase of transaminase: 0
  Muscle pain, back pain: 0
  Severe adverse events: 0
  Serious adverse events: 0
[4]; AM 5 ng/kg/min, n = 5, n = 7
  Any adverse events: 4 (80%)
[4]; AM 10 ng/kg/min, n = 7
  Decrease of blood pressure (cardiovascular disorders): 1 (14%)
  Flushing (cardiovascular disorders): 0
  Gastrointestinal disorders: 0
  Head disconfort (nervous system disorders): 1 (14%)
  Palpitation (cardiovascular disorders): 0
  Rash: 0
  Headache (nervous system disorders): 4 (57%)
  Increase of transaminase: 0
  Muscle pain, back pain: 0
  Any adverse events: 6 (86%)
  Severe adverse events: 0
  Serious adverse events: 0
[4]; AM 15 ng/kg/min, n = 7
  Decrease of blood pressure (cardiovascular disorders): 1 (14%)
  Flushing (cardiovascular disorders): 2 (29%)
  Gastrointestinal disorders: 0
  Head disconfort (nervous system disorders): 2 (29%)
  Palpitation (cardiovascular disorders): 1 (14%)
  Rash: 1 (14%)
  Headache (nervous system disorders): 4 (57%)
  Increase of transaminase: 1 (14%)
  Muscle pain, back pain: 0
  Any adverse events: 6 (86%)
  Severe adverse events: 0
  Serious adverse events: 0
[5]; AM 5 ng/kg/min infusion 8 h/day x 14 days, at 2 weeks, n = 4, baseline 9.5 ± 1.0, placebo 6.8 ± 3.6
  Mayo score: 5.0 ± 3.2
[5]; AM 5 ng/kg/min infusion 8 h/day x 14 days, at 8 weeks, n = 3, placebo 4.5 ± 3.5 (n = 2)
  Mayo score: 2.0 ± 1.7
[5]; AM 10 ng/kg/min infusion 8 h/day x 14 days, at 2 weeks, n = 5, baseline 8.8 ± 1.1, placebo 6.8 ± 3.6
  Mayo score: 7.2 ± 2.7
[5]; AM 10 ng/kg/min infusion 8 h/day x 14 days, at 8 weeks, n = 3, placebo 4.5 ± 3.5 (n = 2)
  Mayo score: 5.7 ± 2.5
[5]; AM 15 ng/kg/min infusion 8 h/day x 14 days, at 2 weeks, n = 6, baseline 9.8 ± 1.6, placebo 6.8 ± 3.6
  Mayo score: 7.0 ± 4.1
[5]; AM 15 ng/kg/min infusion 8 h/day x 14 days, at 8 weeks, n = 3, placebo 4.5 ± 3.5 (n = 2)
  Mayo score: 0.0 ± 0.0
[6]; AM 5 ng/kg/min infusion 8 h/day x 14 days, at 2 weeks, n = 4, baseline 10.8 ± 2.9, placebo 7.0 ± 5.8
  Lichitiger index: 5.5 ± 5.6
[6]; AM 5 ng/kg/min infusion 8 h/day x 14 days, at 4 weeks, n = 3, placebo 3.5 ± 3.7
  Lichitiger index: 2.0 ± 1.7
[6]; AM 5 ng/kg/min infusion 8 h/day x 14 days, at 8 weeks, n = 3, placebo 2.3 ± 4.0
  Lichitiger index: 1.3 ± 1.2
[6]; AM 10 ng/kg/min infusion 8 h/day x 14 days, at 2 weeks, n = 5, baseline 12.2 ± 0.4, placebo 7.0 ± 5.8
  Lichitiger index: 7.8 ± 3.8
[6]; AM 10 ng/kg/min infusion 8 h/day x 14 days, at 4 weeks, n = 3, placebo 3.5 ± 3.7
  Lichitiger index: 4.7 ± 4.7
[6]; AM 10 ng/kg/min infusion 8 h/day x 14 days, at 8 weeks, n = 3, placebo 2.3 ± 4.0
  Lichitiger index: 5.7 ± 4.5
[6]; AM 15 ng/kg/min infusion 8 h/day x 14 days, at 2 weeks, n = 6, baseline 12.0 ± 1.7, placebo 7.0 ± 5.8
  Lichitiger index: 6.5 ± 4.4
[6]; AM 15 ng/kg/min infusion 8 h/day x 14 days, at 4 weeks, n = 3, placebo 3.5 ± 3.7
  Lichitiger index: 1.3 ± 1.5
[6]; AM 15 ng/kg/min infusion 8 h/day x 14 days, at 8 weeks, n = 3, placebo 2.3 ± 4.0
  Lichitiger index: 0.3 ± 0.6
